Results published in PubChem BioAssay AID1053144 (Broad Institute, 2014).

Tested on: NPC TCF/LEF luciferase reporter, Wnt3a EC25, 24 h
Experiment: Wnt/beta-catenin signaling activators, dose response, cell-based, iPS-derived NPC, luciferase, Wnt3a, cherry-pick (AID 1053144);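 further: Wnt3a stimulus is conditioned medium from Wnt3a-transfected mouse L cells at 5% in well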

SMILES	AC30 [µM]
COc1ccc(C(=O)O/N=C(\N)c2ccc(Cl)cc2)cc1	9.22
Cc1csc(=NC(=O)c2ccccc2)n1C	8.72
O=C(Nc1ncccc1O)c1ccc2c(c1)OCCO2	5.13
O=C(Nc1ccccc1O)c1ccc(NS(=O)(=O)c2cccc3cccnc23)cc1	3.53
CCOC(=O)C1=C(COC(=O)c2cccc(N(C)C)c2)NC(=O)NC1C (stereo not drawn)	11.8
Cc1ccc(OCC(=O)Nc2ccccc2C(N)=O)cc1	7.04
CNC(=O)c1ccsc1NC(=O)c1sc2ccccc2c1Cl	12.4
O=C(O)c1ccc(N=Nc2c(O)[nH]c3cc(Cl)ccc23)cc1	4.78
COc1ccc2c(c1)c(/C=N/Nc1nc3ccccc3[nH]1)c(C)n2C	12.1
Nc1ccc2nc(-c3ccccc3)cnc2c1	8.28
COc1ccc(/C=C/c2ccncc2)cc1	11.1
Cc1ccc(C(=O)Nc2cccc(-c3ccc(N4CCOCC4)nn3)c2)cc1[N+](=O)[O-]	9.12
O=c1c2cccc(Cl)c2nc2n1Cc1ccccc1-2	16.7
CCC(=O)NC1=C(Nc2ccc(N)cc2)C(=O)c2ccccc2C1=O	5.42
COc1cc(/C=C/c2ccc3cccc(O)c3n2)cc(OC)c1OC	13.7
COc1ccc2[nH]c(=O)c(CNc3ccccc3C)cc2c1	17.3
Nc1ccccc1NC(=O)c1ccccc1	8.77
O=C(OCC(=O)c1ccc(Br)s1)c1ccc(O)cc1	15.8
CC1(C)CC(=O)/C(=N/Nc2ccc(Cl)cc2)CO1	4.78
CC(=O)Nc1sc2c(c1-c1nc3ccccc3s1)CN(C(C)C)CC2	2.43
CC1CCc2c(C(=O)Nc3ccccn3)csc2C1 (stereo not drawn)	4.65
N/C(=N\OC(=O)c1ccco1)c1ccc(Cl)cc1	11.8
COc1ccc(C(=O)NC2=NCCS2)cc1	9.19

SMILES	AC30 [µM]
COc1ccc(CCNC(=O)c2cc(-c3ccco3)on2)cc1OC	11.4
CCOC(=O)c1ccc(-c2ccc(CO)o2)cc1	17.5
O=C(Nc1nc2cc3c(cc2s1)OCCO3)c1ccc([N+](=O)[O-])o1	9.12
O=C(COc1ccc(F)cc1Br)N1CCc2ccccc21	4.78
O=C1Nc2ccccc2S/C1=C/c1cccs1	12.9
Fc1ccc2nc3[nH]c4ccccc4c3nc2c1	8.76
COc1ccc(-c2ccc3ccccc3n2)cc1OC	9.49
Cn1c(SCC(=O)c2ccccc2)nnc1-c1ccco1	4.78
COc1ccc2cc(-c3ccn[nH]3)ccc2c1	4.78
Cc1ccc2nc(-c3ccc(NS(=O)(=O)c4c(C)n(C)c(=O)n(C)c4=O)cc3)sc2c1	2.2
O=C(NCCO)c1ccc2c3n(nc2c1)-c1ccc(Cl)cc1CO3	12.3
COc1ccc(NC(=O)n2ncc3c(C)cccc32)cc1	4.78
CCCNC(=O)c1oc2ccc3c(c2c1C)C=CC(C)(C)O3	8.63
O=C(/C=C/c1ccco1)NCCc1ccccc1	5.05
CC(C)C1COC(c2cccc3ccccc23)=N1 (stereo not drawn)	4.78
O=C(O)c1ccc2c(c1)C(=O)N(c1ccc(/C=C/C(=O)c3ccccc3)cc1)C2=O	18.7
O=C(c1ccccc1)c1ccc2nc(-c3ccco3)c(-c3ccco3)nc2c1	8.23
Cc1cc(N(C)C)ccc1N=Nc1ccc2ncccc2c1	2.2
CCc1ccccc1-n1c(SCC(=O)N2CCCC2)nnc1-c1ccccn1	8.48
COc1ccccc1C(=O)O/N=C(\N)c1ccc(Cl)cc1	6.87
O=[N+]([O-])c1cccc(-c2nnc(-c3ccccc3F)o2)c1	8.84
Nc1ccc(N=Nc2ccccc2Cl)c(N)n1	4.42
CCC(=O)Nc1sc(C(=O)Nc2ccccc2)c(C)c1C(=O)OC	9.81

SMILES	AC30 [µM]
CN1CCSc2ccc(C(=O)Nc3cc(F)ccc3F)cc21	2.35
COCCNC(=O)c1cc(-c2cccs2)on1	16.9
COc1cccc(NC(=O)c2csc3c2CCCC3)c1	4.78
O=C(CCCCCCC(=O)Nc1ccccc1)NO	1.47
CC(=O)N(C)c1ccc(NC(=O)c2ccco2)cc1	11.6
COc1cccc(/C=C2\N=C3CCCCCN3C2=O)c1	16.1
COc1ccc(C(=O)COC(=O)c2sccc2C)cc1OC	11.8
Cc1ccc(/C=N/Nc2nc3ccccc3[nH]2)s1	16.1
O=C(Nc1ccc(NC(=O)C2CCCCC2)nc1)c1cccs1	10.1
Clc1ccc(SCc2cn3ccsc3n2)cc1	8.8
Cc1ccc2cc(/C=C/C(=O)c3ccco3)c(Cl)nc2c1	16.8
O=C(NCCCn1ccnc1)c1cc(-c2ccccc2)on1	7.41
COc1ccccc1OCc1cc(C(=O)N(C)CCC2CCOCC2)no1	9.94
O=C(NCCN1CCOCC1)c1cc(-c2ccccc2)on1	8.01
O=c1/c(=C\c2ccc(F)cc2)sc2n1CCCN=2	12.5
Cc1ccc(C(=O)NNc2ncnc3ccccc23)cc1	8.88
O=c1[nH]c(=O)n([C@H]2C[C@H](O)[C@@H](CO)O2)cc1Br	13.2
Oc1ccccc1-c1nnc(COc2ccc(Cl)cc2Cl)o1	10.5
Cc1cccc(/C(N)=N/OC(=O)c2ccc(Br)o2)c1	11.7
Cc1cc(C)n(CCC(=O)N/N=C/c2ccc(Br)c([N+](=O)[O-])c2)n1	17.2
CCc1cc2c(=O)[nH]c(-c3ccccn3)nc2s1	10.2
Cc1cc(-c2nc3ccccc3c(=O)o2)ccc1[N+](=O)[O-]	16.2
O=C(Nc1ccccc1O)c1ccc(NC(=O)C2CC2)cc1	5.37

SMILES	AC30 [µM]
Cc1ccc2cc(NC(=O)c3cccc(F)c3)ccc2n1	10.5
Nc1c2ccccc2nc2ccccc12	5.99
CSc1ccccc1C(=O)Nc1ccc2c(c1)CCC2	3.13
O=C(COC(=O)c1cccs1)c1ccc2ccccc2c1	9.52
C=CCNC(=O)c1ccc2c3n(nc2c1)-c1ccc(Cl)cc1CO3	9.82
O=C(/C=C\c1ccc(-c2ccccc2)o1)c1ccccc1	4.16
O=C(Nc1ccc(Cl)cc1)OCc1ccccn1	9.15
CCOC(=O)C(NC(=O)c1ccc(F)cc1)(Nc1sc2c(c1C(N)=O)CCC2)C(F)(F)F (stereo not drawn)	16.3
Oc1ccc(Br)cc1-c1cc(-c2ccccc2F)[nH]n1	12.9
CN(C)S(=O)(=O)Oc1cccc(C(=O)Nc2cccc(Cl)c2)c1	13
O=C(Nc1ccc2nc(-c3ccccc3)[nH]c2c1)c1ccco1	16.9
COCCNC(=O)c1cc2c(s1)-c1ccc(Cl)cc1SC2	11.2
Cc1ccc(-n2ncc3c(Nc4cccc(C(=O)O)c4)ncnc32)cc1	4.78
O=C(/C=C/c1ccco1)Nc1ccc2c(c1)OCO2	12.1
Nc1ccc2nc3c(=O)n(C4CCCCC4)c(=O)[nH]c3nc2c1	10.5
O=C1C=C(c2ccc3[nH]ccc3c2)CCC1	10.1
c1ccc2c(c1)oc1c(Nc3ccc4c(c3)OCO4)ncnc12	4.78
O=C(/C=C/c1ccccc1)c1c[nH]c2ccccc12	4.78
Fc1ccccc1-c1nc(-c2ccncc2)no1	2.79
O=C(Nn1cnc2ccccc2c1=O)c1c(F)cccc1F	18.8
CCCCOC(=O)Nc1ccc(C(=O)OC)cc1	11.7
COCCNC(=O)c1ccc2c3n(nc2c1)-c1ccc(C)cc1CO3	10.7
O=C(NC1CCCC1)c1cc(-c2ccccc2)on1	8.71

SMILES	AC30 [µM]
O=C(N/N=C/C(Br)=C\c1ccccc1)c1cccs1	13.7
Nc1ccc(-c2nc3cc([N+](=O)[O-])ccc3o2)cc1	4.78
O=c1oc(CCO)cc2ccc(C#Cc3ccsc3)cc12	4.78
O=C(C=Cc1ccco1)c1ccc2ccccc2c1	11.2
Cc1ccsc1/C=N\NC(=O)c1ccc2c(c1)OCO2	4.78
COc1cccc(-c2nnc(SCC(=O)N(C(C)C)C(C)C)o2)c1	20.7
CCOC(=O)c1c(C)[nH]c(C(=O)COC(=O)C2(C)CC2(Cl)Cl)c1C (stereo not drawn)	6.45
COc1ccc(/C=N/Nc2ccccn2)cc1O	11.6
O=C(c1cccs1)c1coc2ccc(O)cc12	15
O=C(CCc1nnc(C2CCCCC2)o1)N1CCN(c2ccccc2F)CC1	8.97
Cc1ccc(Nc2ncccc2C(N)=O)cc1[N+](=O)[O-]	5.42
COc1ccc(NC(=O)c2ccccc2NC(=O)C2CCCCC2C(=O)O)cc1 (stereo not drawn)	19.3
CCOc1ccc(CCNC(=O)/C=C/c2ccco2)cc1OCC	13.5
CC1=NN(c2ccccc2)C(=O)C1N=Nc1ccccc1 (stereo not drawn)	4.78
O=c1cc(-c2cccs2)oc2ccc(Cl)cc12	5.83
COc1cc(C(=O)O/N=C2\C=CC(=O)C(C)=C2)cc(OC)c1OC	16
COc1cccc(-c2csc(NC(=O)C3CC3)n2)c1	13.9
c1ccc(-c2cc(-c3ccccc3)on2)cc1	4.78
Nc1ccccc1C(=O)/C=C/c1ccc2c(c1)OCO2	2.2
CCOC(=O)N1CCC(Nc2c(NCCCN3CCN(c4ccc(OC)cc4)CC3)c(=O)c2=O)CC1	19.5
Cc1ccc2nc(-c3ccc(NC(=O)CSCC(=O)O)cc3)sc2c1	2.04
